Legend:
[1] = biological target: T1, HEG1-KRIT1 PPI (Homo sapiens, UniProt O00522); assay: HEG1-KRIT1 PPI fluorescence polarization (FP) time-resolved assay; format: biochemical
T1 construct: a recombinant FERM domain (residues 417–736) of KRIT1; made in house; host or cells: E. coli
Experimental: To evaluate the binding kinetics of HNA inhibitors, a fluorescence polarization (FP) time-resolved assay that uses a recombinant FERM domain (residues 417–736) of KRIT1 and a fluorescence-tagged HEG1 cytoplasmic tail (Cy5-HEG1 7-mer peptide) was developed (Supporting Information). Using HNA as a test compound, the FP data, expressed as millipolarization (mP) units, were obtained every 10 min over the course of 4–7 h. […] Thus, for practical purposes, a 4-h incubation time was established as the standard assay time for non-kinetic IC50 evaluations.
Fluorescence Polarization Assay and Optimization
The KRIT1 FERM domain (residues 417-736) was cloned into plasmid and recombinantly expressed in E. coli as previously described,1 while the Cy5-HEG1 7- mer peptide bearing the Cy5 dye as fluorescent probe was prepared by and purchased from GenScript (New Jersey, US). HEPES- buffered saline (HBS) buffer was supplemented (0.01%) with detergent Triton X -100 to minimize protein adsorption to the microplate. The assay was setup in a 96-well plate plated with 80 nM KRIT1, 4 nM Cy5- HEG1 probe, and either non-tagged HEG1 peptide or HNA as inhibitor (in 5% DMSO). To account for background fluorescence that could interfere with the assay, background wells with only test compound and Cy5 -HEG1 probe (no KRIT1) were also plated. The FP data, expressed as millipolarization (mP) units, were obtained […]
course of 4-7 hours (for kinetic characterization) using a Tecan Spark® Multimode Microplate Reader. The background mP (no KRIT1) was subtracted from mP to account for background fluorescence. All assays were done in triplicates.
Several FP assay conditions were optimized. First, the HEG1 probe engagement of KRIT1 was examined and its interaction was determined to be rapid equilibrium, thus any observed time dependance in response when an inhibitor displaces the probe is the result of inhibitor exchange kinetics and not that of the probe. Next, the affinity of KRIT1 for the probe (Kd) was examined by following the change in polarization signal as a function of a matrix of five probe concentrations and four KRIT1 concentrations (Figure S1B ). A global fit of equation 3 to polarization responses of the inhibitor vs KRIT1 concentration […]
even after 7 hours of incubation. For practical purposes, we have chosen 4 hours as our standard incubation time since it appeared that most of the inhibition has been reached at this time point. The kinetic characterization of HNA as a HEG1- KRIT1 inhibitor will be discussed in greater detail in the kinetic section […]
values to those obtained from the flow cytometry assay. Finally, to assess the robustness of the FP assay, […]
a robust assay) representing an excellent assay with clear differences between positive and negative controls.2 Evaluation of HEG1-KRIT1 inhibitors prior to the optimization of the FP assay were done using flow cytometry, while subsequent compounds were evaluated using the FP assay. All subsequent assay plates included HNA as comparison and control.
Figure S1. Optimization of fluorescence polarization (FP) assay.
HEG1-KRIT1 inhibition. (B) Optimization of KRIT1 protein and Cy5 -HEG1 probe concentrations. Dose-response curve of HNA obtained via fluorescence polarization (C) and flow cytometry (D) assays show […]
All assays were tested in technical duplicates or triplicates in at least 2 different

[2] = pKa by potentiometric titration (Sirius T3); format: physicochemical; conditions: potentiometric titrations, means ± SD of three titrations
[3] = HEK293 cytotoxicity, resazurin cell viability assay; format: cell-based; conditions: human, HEK293 cells, means ± SD, n = 3
Experimental: Maintenance of HEK293 Cells. HEK293 cell lines (American Type Culture Collection (ATCC)) were cultured in Dulbecco's Modified Eagle Medium (DMEM, Invitrogen) supplemented with 10% heat-inactivated fetal bovine serum (FBS, Gibco) and penicillin-streptomycin (1%). Cells were kept at 37 °C and 5% CO2, and were passaged every 72 hours.
Resazurin Cell Viability Assay. The cytotoxicity in HEK293 cells were determined using a resazurin cell viability assay. Test compounds in DMSO were diluted to 100x desired final assay concentration (maximum concentration of 100 µM) in eight-point dose response. 1 µL of test compounds were plated in a 96-well clear bottom tissue culture microplate. 49 µL of cell culture media was added to each well. Cells were diluted to 4 x 10^5 cells/mL, and 50 µL of this cell suspension was seeded to each well for a total of 2 x 10^4 cells/well. The assay plate was kept at 37 °C and 5% CO 2 for either 4 or 48 hours. At the end of the incubation time, 20 µL of 0.5 mM resazurin sodium salt (Alfa Aesar) solution in PBS was added to each well. The assay plates were incubated further at 37 °C for 2 hours. Fluorescence was measured at 531 nm and 595 nm excitation and emission wavelengths, respectively, using a 2104 EnVision® multilabel plate reader. CC50 values were obtained using sigmoidal curved generated with Prism GraphPad (San Diego, CA). SD values are reported as the standard deviation of the CC50 values of 3 biological replicates. All

[4] = test system: HEG1-KRIT1 PPI; conditions: previously reported data; read-out: HEG1-KRIT1 IC50, flow cytometry assay; cited from earlier work
[5] = test system: KLF2; parameters: method as in PMID 33977234; conditions: HUVECs, 24 h of incubation; cited from earlier work
[6] = test system: KLF4; parameters: method as in PMID 33977234; conditions: HUVECs, 24 h of incubation; cited from earlier work
[7] = global fit across six or more inhibitor concentrations, means ± SD, n = 3

T1 sequence (O00522 417-736): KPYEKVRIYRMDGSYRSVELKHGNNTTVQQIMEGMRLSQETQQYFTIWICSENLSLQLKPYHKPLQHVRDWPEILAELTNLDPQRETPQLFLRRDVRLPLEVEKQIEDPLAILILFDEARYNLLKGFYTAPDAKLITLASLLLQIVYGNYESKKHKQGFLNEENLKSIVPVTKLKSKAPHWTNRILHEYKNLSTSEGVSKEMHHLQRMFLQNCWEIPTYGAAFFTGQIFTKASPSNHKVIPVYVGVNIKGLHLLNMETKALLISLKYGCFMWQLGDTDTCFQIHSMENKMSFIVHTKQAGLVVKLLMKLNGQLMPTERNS

difference in affinity, KRIT1 (FP assay) vs N-α-acetyl lysine ([1]; Ki for KRIT1 vs Kd for N-α-acetyl lysine): > 70,000 fold
IC50 ([1]; fluorescence polarization assay after 4 h of incubation, means ± SD, n = 3): 8.14 ± 0.82 µM
inhibition of HEG1-KRIT1 PPI upon co-incubation with free lysine ([1]; free lysine 50 μM in the assay buffer): did not meaningfully change
HEG1-KRIT1 PPI Assay kon [1, 7]: 14.4 ± 0.583 M⁻¹ s⁻¹
koff [1, 7]: 3.31e-05 s⁻¹
HEG1-KRIT1 PPI Assay kon ([1]; global fit across six or more inhibitor concentrations, means ± SD, n = 3, listed as HNA): 14.4 M⁻¹ s⁻¹
Ki ([1]; global fit, means ± SD, n = 3, unit in Figure 2E, read-out: HEG1-KRIT1 PPI Assay Ki (koff/kon)): 2.29 ± 0.44 µM
pKa [2]: 7.34 ± 0.02
Structure (SMILES): O=Cc1c(O)ccc2ccccc12 [Compound 1, 2-hydroxy-1-naphthaldehyde]
CC50 at 48 h [3]: ~100 µM
IC50 [4]: 3.09 µM
KLF2 expression [5]: upregulation
KLF4 expression [6]: upregulation
